According to patent US9315465B2, “Photostable AIE luminogens for specific mitochondrial imaging and its method of manufacturing thereof” (THE HONG KONG UNIVERSITY OF SCIENCE AND TECHNOLOGY, priority 2013, dated 2016):
Each block holds one compound with its values, some of them ahead of it.

What was measured:
mitochondria = assay: Effect of CCCP on mitochondria (pH, ΔΨm, morphology); format: cell-based
Experimental: Excitation wavelength: 405 nm; emission filter: 449-520 nm; irradiation time: 15.49 sec/scan.
(§1) To test the tolerance of TPE-TPP and MT to the change of mitochondrial ΔΨm, carbonyl cyanide m-chlorophenylhydrazone (CCCP) was used to treat the cells prior to the staining procedure. CCCP is an uncoupler that causes rapid acidification of the mitochondria and dysfunction of ATP synthase resulting in the decrease of the mitochondrial ΔΨm. Upon treatment with 20 μM CCCP, the pH of mitochondria decreased about 0.7 and ΔΨm thus decreased around 40 mV according to the Nernst equation. […] Since the targeting of MT to mitochondria is driven by the huge ΔΨm, the decrease of ΔΨm, will affect the direction and accumulation of cationic MT to mitochondria. It was expected that similar phenomena would be observed for TPE-TPP as it shares a similar working principle.
The high tolerance of TPE-TPP to the decrease of ΔΨm enables the observation of change of mitochondrial morphology induced by CCCP. […] The early stage of apoptosis involves remodeling of mitochondrial cristae and the consequent occurrence of morphological change of mitochondria, which is considered as an irreversible process associated with the collapse of ΔΨm. TPE-TPP has excellent specificity to mitochondria with outstanding photostability and tolerance to microenvironment change, representing a potential candidate of tracking agent for apoptosis studies.

[1] = tested on: mitochondria of CCCP-treated HeLa cells; assay: Tolerance of mitochondrial staining to decrease of mitochondrial ΔΨm (CCCP-treated cells); format: cell-based; settings: HeLa cells treated with 10 μM CCCP prior to staining
Description: Excitation wavelength: 540-580 nm (for MT) and 330-385 nm (for TPE-TPP).
as §1, with “Upon treatment with 20 μM CCCP, the pH of mitochondria decreased about 0.7 and ΔΨm thus decreased around 40 mV according to the Nernst equation.” left out

[2] = tested on: mitochondria of the living HeLa cells; assay: Mitochondria staining and co-localization by fluorescence microscopy; format: cell-based
Experimental: TPE-TPP was then assessed for its ability to localize and stain mitochondria in living cells by fluorescence microscope. Cervical cancer HeLa cells were incubated with 5 μM TPE-TPP for 1 h and excess dyes were washed away by buffer solution.
Pearson's correlation coefficient (Rr; from +1 to −1), which indicates the degree of linear dependence between two variables, is used to quantify the overlapping of the staining region between TPE-TPP and MT.
In FIG. 7A, cells were incubated with TPE-TPP for 1 h.
An AIE luminogen targeting mitochondria specifically with red fluorescence emission was also synthesized, i.e., TPE-MitoR, (E)-1-ethyl-3,3-dimethyl-2-(2-(4′(1,2,2-triphenylvinyl)-[1,1′-biphenyl]-4-yl)vinyl)-3H-indol-1-ium hexafluorophosphate. […] TPE-MitoR's ability for tracking mitochondria is evaluated by colocalizing with TPE-TPP (FIG. 14).
In addition, cell fixation is important for sample preserving.

HeLa cell = assay: UV-irradiation induced mitochondrial morphology change / apoptosis in stained cells; format: cell-based; settings: HeLa cell stained with TPE-IQ, UV 6 s then 15 min in the dark
Description: (A) 1 s; (B) 2 s; (C) 6 s; (D) 11 s.
(§2) With UV irradiation, the morphology of mitochondria changed gradually, indicating the initiation of the cell apoptosis process. […] To understand the underlying mechanism of TPE-IQ induced cell apoptosis, reactive oxygen species (ROS) detection agent H2DCFDA was utilized. […] This means that TPE-IQ could be utilized as a sensitizer for ROS generation, to induce cell apoptosis. Considering the mitochondria targeting of the probe, TPE-IQ could be used as an apoptosis inducer while enabling observation of the morphology change of the mitochondria at the same time. Besides, the probe may be utilized in phototherapy for selectively killing specific cells, while allowing for the study of how cells communicate when one cell undergoes the apoptosis process.

[3] = tested on: reactive oxygen species (ROS); assay: ROS detection with H2DCFDA under UV irradiation; settings: solution of TPE-IQ 10 μM and H2DCFDA 1 μM, intensity at 521 nm
Experimental: Concentration of TPE-IQ: 10 μM; concentration of H2DCFDA: 1 μM.
as §2

[4] = Particle size analysis of nanoaggregates; format: physicochemical; settings: aqueous solution containing 0.1% DMSO, identical condition for cell staining
Description: The DMF solution of TPE-TPP was almost non-emissive while the solid state is strongly luminescent at 466 nm. […] The scheme of synthesis of said TPP-functionalized TPE is as follow: […]

HeLa cells = assay: Cytotoxicity by MTT assay; format: cell-based; settings: added to the culture medium
Experimental: Applying an organelle tracker into living sample, the cytotoxicity of the probe, TPE-TPP, was evaluated using the 3-(4,5-dimethyl-2-thiazolyl)-2,5-diphenyltetrazolium bromide (MTT) assay (FIG. 6).

[5] = Description: The TPE core was synthesized simply from a McMurry coupling reaction. TPP was attached through bromination and subsequent reaction with triphenylphosphine.

Structure (SMILES): N#CC(C#N)=NNc1cccc(Cl)c1 [CCCP, carbonyl cyanide m-chlorophenylhydrazone]
decrease of pH of mitochondria (mitochondria; 20 μM CCCP): about 0.7
decrease of ΔΨm (mitochondria; 20 μM CCCP, according to the Nernst equation): around 40 mV
change of mitochondrial morphology (mitochondria; living HeLa cells exposed to CCCP (20 μM), stained with TPE-TPP): gradually transformed to small and dispersed fragments

Structure (SMILES): CN1C(=CC=Cc2n(Cc3ccc(CCl)cc3)c3cc(Cl)c(Cl)cc3[n+]2Cc2ccc(CCl)cc2)C(C)(C)c2ccccc21.[Cl-] [MT]
specificity and sensitivity to mitochondria in CCCP-treated cells [1]: no more specificity to mitochondria and the sensitivity became worse

Structure (SMILES): CCC[n+]1cc2ccc(C(=C(c3ccccc3)c3ccccc3)c3ccccc3)cc2c(-c2ccccc2)c1-c1ccccc1 [TPE-IQ, 3,4-diphenyl-2-propyl-6-(1,2,2-triphenylvinyl)isoquinolin-2-ium tetrafluoroborate]
mitochondria targeting in fixed cells ([2]; HeLa cells after 4% paraformaldehyde (PFA) fixation for 50 min): could still target to the mitochondria
incubation time sufficient for lighting up the mitochondria ([2]; HeLa cells, 200 nM): 10 min
emission from the mitochondria of the cells ([2]; HeLa cells, 500 nM, 1 min incubation): strong emission
mitochondrial morphology after UV irradiation (HeLa cell): changed substantially
H2DCFDA fluorescence (ROS production) with continuous UV irradiation [3]: increased gradually

Structure (SMILES): CC[N+]1=C(/C=C/c2ccc(-c3ccc(C(=C(c4ccccc4)c4ccccc4)c4ccccc4)cc3)cc2)C(C)(C)c2ccccc21 [TPE-MitoR, (E)-1-ethyl-3,3-dimethyl-2-(2-(4′(1,2,2-triphenylvinyl)-[1,1′-biphenyl]-4-yl)vinyl)-3H-indol-1-ium hexafluorophosphate]
ability for tracking mitochondria (colocalization with TPE-TPP) ([2]; HeLa cells, 5 μM, 30 min): promising result in locating mitochondria

average particle size [4]: 144 nm
solubility in aqueous solution ([5]; aqueous solution): relatively poor solubility
solubility in polar solvents ([5]; polar solvents such as DMF and DMSO): completely soluble
Structure (SMILES): [Br-].[Br-].c1ccc(C(=C(c2ccccc2)c2ccc(C[P+](c3ccccc3)(c3ccccc3)c3ccccc3)cc2)c2ccc(C[P+](c3ccccc3)(c3ccccc3)c3ccccc3)cc2)cc1 [TPE-TPP, Bis(Triphenylphosphonium) Tetraphenylethene]
concentration up to which cell viability is not significantly altered (HeLa cells): up to 7.5 μM
specificity and sensitivity to mitochondria in CCCP-treated cells [1]: perfectly retained
localization of staining in living cells ([2]; HeLa cells, 5 μM, 1 h): stains specifically the mitochondrial region
staining time sufficient to enter and light up mitochondria ([2]; HeLa cells, data not shown): 15 min
Pearson's correlation coefficient (Rr) of overlap with MitoTracker Red FM (MT) ([2]; co-staining in living HeLa cells, TPE-TPP 5 μM, MT 50 nM): 0.96
